According to patent US11957699B2, “Composition comprising punicalagin for inhibiting PAR2 activity” (INDUSTRY-ACADEMIC COOPERATION FOUNDATION, YONSEI UNIVERSITY, priority 2018, dated 2024):

Experiments:
[1] = tested on: NZB/W F1 mice with lupus nephritis; experiment: Lupus nephritis mouse model (NZB/W F1); assay type: in vivo
Experimental: With NZB/W F1 mice that were purchased from Central Lab. Animal Inc., the effect of punicalagin on symptoms of lupus nephritis was confirmed.
As control groups, there were two groups including a nephritis-induced group that was injected only with physiological saline and a nephritis-induced group that was injected with 7 mg/kg methylprednisolone (MPL), which is a standard therapeutic agent for lupus nephritis, and proteinuria was measured twice a week (panel A of FIG. 9).
Next, the protective effect of punicalagin on renal structural damage against lupus nephritis was histologically evaluated. To this end, kidneys were extracted and PAS stained in 30-week-old mice, and the degree of damage to glomeruli, ducts, and blood vessels was histologically quantified. In addition, when lupus nephritis was induced, the expressions of IgG and C3, which are autoantibodies mostly expressed in kidney tissues, were fluorescence-stained and observed under a fluorescence microscope.
In order to determine the mechanism of the alleviating effect of punicalagin on lupus nephritis, the spleen was extracted from 30-week-old mice, the spleen weight and the number of splenocytes were measured, and changes in T cells in the spleen were analyzed by FACS.
After serum was isolated from 30-week-old mice, it was analyzed by the enzyme immunoassay to determine whether punicalagin inhibited or increased cytokines that were expressed by lupus nephritis.
In order to determine the alleviating effect of punicalagin on lupus nephritis, serum was isolated from 30-week-old mice, and the expression of B cell autoantibodies was analyzed by the enzyme immunoassay.
In order to determine the alleviation mechanism of punicalagin against lupus nephritis, the expressions of VCAM-1 and ICAM-1 were analyzed by immunohistochemical staining in renal tissues of 30-week-old mice.

PAR2 = molecular target: T1, PAR2 (Homo sapiens, UniProt P55085); experiment: CaCC-dependent Cl- secretion (short-circuit current, Ussing chamber) by PAR2-AP in primary cultured human conjunctival epithelial cells; assay type: cell-based; set-up: endogenous in cells; details: 10 μM for 10 minutes, 100 μM PAR2-AP, after 100 μM amiloride
T1 sequence (P55085 26-397): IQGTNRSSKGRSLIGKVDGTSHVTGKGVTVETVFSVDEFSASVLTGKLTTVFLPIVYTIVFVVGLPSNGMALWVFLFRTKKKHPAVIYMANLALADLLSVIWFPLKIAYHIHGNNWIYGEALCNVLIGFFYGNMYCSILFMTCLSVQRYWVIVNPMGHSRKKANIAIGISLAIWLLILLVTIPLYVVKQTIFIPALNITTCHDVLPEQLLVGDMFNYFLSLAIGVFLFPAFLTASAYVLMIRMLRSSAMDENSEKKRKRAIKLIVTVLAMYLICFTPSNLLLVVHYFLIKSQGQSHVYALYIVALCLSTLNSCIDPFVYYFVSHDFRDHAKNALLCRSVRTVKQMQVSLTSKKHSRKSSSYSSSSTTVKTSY
Experimental: After primary cultured human conjunctival epithelial cells expressing PAR2 were cultured in a transwell, followed by removal of a culture medium on the side of an apical membrane, retinoic acid was added to the side of a basolateral membrane to differentiate for about 2 weeks (Invest Ophthalmol Vis Sci. 2013 Oct. 29; 54(10): 7143-52), and then, short-circuit currents were measured using a Ussing chamber. […] Next, by treating 10 μM forskolin, which is a an activator of the cystic fibrosis transmembrane conductance regulator (CFTR), the effect of promoting Cl^− secretion by the cystic fibrosis transmembrane conductance regulator (CFTR) channel was measured, and then, by treating 10 μM CFTRihn-172(5-[(4-carboxyphenyl)methylene]-2-thioxo-3-[(3-trifluoromethyl)phenyl-4-thiazolidinone]) (J Clin Invest. 2002 December; 110(11): 1651-8), which is a CFTR inhibitor, it was confirmed that Cl^− secretion by the CFTR channel was inhibited (panel A of FIG. 3).
Meanwhile, Cl^− secretion by PAR1-AP was not measured as a result of the above experiment, and in order to confirm the inhibitory effect of Cl^− secretion during punicalagin treatment. […]

[2] = tested on: heart, liver, and lung tissues of lupus mice; experiment: Histology (hematoxylin-eosin) of heart, liver and lung of lupus mice; assay type: in vivo; details: 3 mg/kg, 1 mg/kg, and 0.3 mg/kg; vs saline or methylprednisolone groups
Experimental: (§1) In order to determine the toxicity of punicalagin, the effect of NIH3T3 cells on cell viability and the weight change of 8-week-old wild-type mice were evaluated, and the heart, liver, and lung were extracted from 30-week-old lupus mice and were histologically evaluated by performing hematoxylin-eosin staining.

NIH3T3 cells = experiment: Cell viability of NIH3T3 cells; assay type: cell-based; details: up to 30 μM
Experimental: as §1

[3] = tested on: C57BL6N mice with colitis induced by DSS; experiment: Colitis induced by dextran sodium sulfate (DSS) in mice; assay type: in vivo
Experimental: In 7-week-old C57BL6N mice, it was confirmed whether punicalagin has an effect of alleviating symptoms of colitis induced by dextran sodium sulfate (DSS).
Specifically, while dextran sodium sulfate (DSS), which is a colitis-causing substance, was diluted in water at 2.5% and was fed to the mice for 9 days, 1 mg/kg (n=4), 3 mg/kg (n=4), or 10 mg/kg (n=5) punicalagin was dissolved in physiological saline and intraperitoneally injected once every 48 hours, and the mice were weighed once a day. As control groups, a group which was fed only with 2.5% DSS (n=4), a group which was not fed with DSS and was not injected with punicalagin (n=3), and a group which was not fed with DSS and was injected with punicalagin at 10 mg/kg (n=3) were established, and weight changes, tissue damage, proinflammatory cytokine concentrations, and the like were measured.

[4] = 3 mg/kg, 1 mg/kg, and 0.3 mg/kg
[5] = 3 mg/kg, 1 mg/kg, and 0.3 mg/kg, similar to methylprednisolone
[6] = 1, 3 or 10 mg/kg intraperitoneally

Compound: O=CC1OC(=O)c2cc(O)c(O)c(O)c2-c2c(cc(O)c(O)c2O)C(=O)OC1C1OC(=O)c2cc(O)c(O)c(O)c2-c2c(O)c(O)c3oc(=O)c4c(c(O)c(O)c5oc(=O)c2c3c54)-c2c(cc(O)c(O)c2O)C(=O)OCC1O (stereo not shown) [punicalagin, 1,2,3,11,12,13-hexahydroxy-5,10-dioxo-8-[3,4,5,11,17,18,19,22,23,34,35-undecahydroxy-8,14,26,31-tetraoxo-9,13,25,32-tetraoxaheptacyclo[25.8.0.0^2,7.0^15,20.0^21,30.0^24,29.0^28,33]pentatnaconta-1(35),2,4,6,15,17,19,21,23,27,29,33-dodecaen-10-yl]-5,7,8,10-tetrahydrodibenzo[f,h][1,4]dioxecin-7-carbaldehyde]
- kidney weight ([1]; 1 mg/kg): reduced
- serum expressions of anti-dsDNA, IgG1, IgG2a, IgG2b, and IgG3 ([1]; 1 mg/kg and 10 mg/kg): decreased
- expression of regulatory T cells (Treg) ([1]; 3 mg/kg): significantly increased
- number of CD4 T cells in the spleen and expressions of TH1, TH2, and TH17 T cells (FACS) ([1]; 3 mg/kg and 1 mg/kg): significantly reduced
- lower proteinuria compared to the nephritis-induced group ([1]; 3 mg/kg and 1 mg/kg, at the level of 7 mg/kg methylprednisolone): 60%
- serum creatinine concentration ([1]; 3 mg/kg group): lowest
- degree of damage to glomeruli, ducts, and blood vessels (PAS staining) ([1]; 3 mg/kg, 1 mg/kg, and 0.1 mg/kg, 30-week-old mice, similar to methylprednisolone): alleviated
- IgG and C3 depositions in kidney tissue (fluorescence) [1, 4]: significantly reduced
- expressions of VCAM-1 and ICAM-1 in kidney tissues (immunohistochemical staining) [1, 4]: significantly reduced
- serum expressions of IL-10 and TGF-β1 [1, 4]: increased
- total number of splenocytes [1, 4]: not increased
- serum expressions of IFN-γ, IL-17A, and IL-6 [1, 5]: reduced
- weight of the spleen [1, 5]: not increased
- mortality from 23 weeks to 30 weeks ([1]; 3, 1 and 0.3 mg/kg intraperitoneally three times a week): none of the subjects died
- serum creatinine concentration vs nephritis-induced group ([1]; punicalagin-treated groups (3, 1, 0.3 mg/kg)): lower
- increase in CaCC-dependent Cl- secretion on PAR2 activation (PAR2): inhibited
- histological difference in heart, liver, and lung tissues [2]: no histological difference
- effect on viability of NIH3T3 cells (NIH3T3 cells): no effect
- colon tissue damage caused by DSS [3, 6]: inhibited
- concentration of proinflammatory cytokines increased by DSS [3, 6]: significantly reduced
- length of the colon reduced by DSS [3, 6]: recovered
- weight loss by DSS ([3]; 1, 3 or 10 mg/kg intraperitoneally once every 48 hours, 2.5% DSS 9 days): inhibited weight loss by DSS in a concentration-dependent manner
